What was measured:
[1] = MB dye photodecomposition under 254 nm light in the absence of any added photocatalyst; conditions: 1 mg in 10 mL 10^−5 M MB, up to 60 min, no photocatalyst
Excerpt: Though photocatalysis increases photodecomposition of organics, thought to be mediated by generation of reactive oxygen species (ROS), organic molecules have their own absorptivity of light due to presence of light-absorbing chemical substituents. This absorptivity of light can itself produce radicals in water, which even in the absence of a photocatalyst per se, can ultimately lead to photodegradation/decomposition of organics. Here it was investigated whether it was possible to reduce the inherent photodecomposition/degradation of methylene blue (MB) dye under exposure to 254 nm light, by using cerium (III) carbonate, in the absence of any added photocatalyst.
Two separate sets of photoreactions were performed: (1) 10 mL aqueous solution of 10^−5 M MB dye was exposed to 254 nm light under a photoreactor setup for a duration of up to 60 min and (2) 1 mg Ce2(CO3)3·4H2O that was synthesized according to the procedure described in Example 3 was dispersed in a 10 mL aqueous solution of 10^−5 M MB dye, and the resulting slurry was exposed to 254 nm light under photoreactor setup for a duration of up to 60 min.

[2] = MB organic dye photodegradation in aqueous slurry with P25 photocatalyst under 254 nm light; conditions: 1 mg Ce2(CO3)3·4H2O versus 11.4 mg Ce (III)-R706, 2 mg P25
[3] = CR organic dye photodegradation in dried acrylic paint film under sunlight; conditions: 6 h sunlight
Excerpt: To investigate the effectiveness of this approach in a dry (solid) composition, Congo Red (CR) organic dye at a concentration of 3×10^−5 M was incorporated into a waterborne acrylic paint formulation dispersion, together with P25 photocatalyst (10 wt % relative to the Ti-Pure R706 pigment weight used in the dispersion).
A composition was made with 16% Ce (III)-R706 pigment volume concentration comprising CR organic dye (the pigment volume concentration is defined as the volume percentage of solid particles in the system after formation of the composition (e.g., excluding water). This was performed by first preparing a 75 wt % aqueous slurry of Ce (III)-R706 pigment by high shear mixing in presence of 0.3 wt % TAMOL™ 1124 with respect to the weight of pigment. 4.64 g of this slurry was incorporated in 12.78 g of acrylic-based BP 8164 polymer (obtained from the Dow Chemical Company), to which was added 1.966 mL of 3.5×10^−4 M CR aqueous dye solution, and 10 wt % P25 photocatalyst (with respect to pigment weight). The resulting dispersion was mixed under high-shear conditions in a high speed mixer.
Thereafter, 0.6 g of 2020E thickener (a non-ionic urethane rheology modifier) was added into the slurry, and the resulting dispersion was mixed under high-shear conditions in a high-speed mixer, to obtain the final formulation dispersion. The solid (dried) film coating was prepared with a 3 mil (1 mil=0.001 inch) bar applicator on a polyacrylic substrate and dried for 48 h prior to conducting the photocatalysis experiments. During photocatalysis, all the coatings were exposed to sunlight (under similar conditions) for an exposure period of 6 hours. Prior to sunlight exposure, 100 mg of the coating was scraped off with a sharp blade, and was extracted in 1.5 mL of absolute ethanol for UV-visible spectroscopy analysis, to obtain a datum of CR organic dye concentration in the film prior to photocatalysis. Similarly, another 100 mg portion of coating scraped off and extracted after 6 hours of sunlight exposure, and the percentage of dye degradation was calculated by UV-visible spectrophotometry.
To investigate the photopassivation effectiveness of a separate cerium (III) compound in a dry (solid) paint film coating, insoluble cerium (III) carbonate particles and CR organic dye at a concentration of 3×10^−5 M were incorporated into a waterborne acrylic paint formulation dispersion, using either Ti-Pure-R706 or the same rutile TiO2 used in Example 1 as the pigment, and assessed the rate of dye photodegradation relative to an identical dispersion, in the absence of cerium (III) carbonate particles.
The composition of this dispersion, and the procedure for synthesizing the dried coating film is described in the paragraph below. […]

[4] = CR dye photodegradation in TiO2-based sunscreen film (Neutrogena Broad Spectrum Mineral Sunscreen SPF 60+); conditions: 3.0 wt. % added agent relative to sunscreen weight
Description: Films on filter paper were fabricated and photoreactor experiments were conducted exactly the same way as described in Example 7.3, using CR dye, except UV irradiation in the photoreactor was conducted for a period of 4 h. These films contained either no UV-protecting agent, 3.0 wt. % of Ce2(CO3)3·6H2O that was synthesized according to Example 3, 3.0 wt. % of commercial Ce2(CO3)3·xH2O (Acros Organics), or 3.0 wt. % of ZnO (NANOBYK-3840). […] Upon adding 3 wt. % of Ce2(CO3)3·6H2O synthesized according to Example 3 to the sunscreen formulation, a decrease in the amount of CR dye photodegradation to 15±1% is observed. […] When cerium carbonate consisting of Ce2(CO3)3·xH2O from Acros Organics is instead used in place of Ce2(CO3)3·6H2O synthesized according to Example 3, photoprotection with 24±2% CR dye photodegradation is observed. The properties of Ce2(CO3)3·xH2O from Acros Organics have been ascribed in Example 4, and these aspects are borne out in conjunction with sunscreen-based formulations here as well. When instead of cerium carbonate ZnO (NANOBYK-3840) is used as a UV-protecting agent, less effect on CR dye photodegradation is observed. This is a similar outcome to observations with MB dye and ZnO-based sunscreen formulation in Example 7.2.
The amount of Ce2(CO3)3·6H2O synthesized according to Example 3 that was incorporated into the TiO2-based sunscreen was increased to 5.0 wt. %, and results are shown in FIGS. 23A-23B and are summarized in Table 4. […] There is a slight diminishing return for adding Ce2(CO3)3·6H2O both here and in Example 7.2, but the effect of increasing Ce2(CO3)3·6H2O on organic-molecule photoprotection is much more pronounced than in the case of ZnO.

photodegradation of CR organic dye in dried paint film ([3]; Ti-Pure R706 pigment, 2 wt. % cerium (III) carbonate relative to pigment) [%]	photodegradation of CR organic dye in dried paint film ([3]; Ti-Pure R706 pigment, 5 wt. % cerium (III) carbonate relative to pigment) [%]	photodegradation of CR organic dye in dried paint film ([3]; rutile TiO2 pigment, 2 wt % cerium (III) carbonate relative to pigment) [%]	% of CR dye photodegradation after 4 h of UV irradiation in photoreactor ([4]; listed as Ce2(CO3)3·xH2O from Acros Organics) [%]	% of CR dye photodegradation after 4 h of UV irradiation in photoreactor ([4]; listed as Commercial Ce2(CO3)3•xH2O (Acros Organics)) [%]	Molecule	fold decreased rate of MB dye photodecomposition compared to control MB solution [1] [fold]	fold lower rate constant than with the same amount of cerium as Ce (III)-R706 [2] [fold]	photodegradation of CR organic dye in dried paint film ([3]; rutile TiO2 pigment, 5 wt % cerium (III) carbonate relative to pigment)
29	12	20	–	–	O=C([O-])[O-].O=C([O-])[O-].O=C([O-])[O-].[Ce+3].[Ce+3] [Ce2(CO3)3·4H2O]	~40	1.5	did not show any detectable CR dye photodegradation
–	–	–	24±2	24 ± 2	Ce2(CO3)3·xH2O [Ce2(CO3)3·xH2O (ACROS Organics)]	–	–	–

Reference: US12180084B2, “Cerium (III) carbonate formulations” (THE REGENTS OF THE UNIVERSITY OF CALIFORNIA, priority 2019, dated 2024)
